The text below walks through data of PMC6811361, “Effect of a bound anion on the structure and dynamics of halorhodopsin from Natronomonas pharaonis” (Structural Dynamics, 2019).

What all share (format): binding
In test [1] the target is T1, halorhodopsin from Natronomonas pharaonis (NpHR) (Natronomonas pharaonis, UniProt P15647, W127F).
T1 construct: gene hop; C-terminal His tag, expressed in E. coli BL21(DE3), solubilised and purified in DDM; all-trans-retinal on Lys256
The test can be described thus: absorption and time-resolved UV resonance Raman spectroscopy. To be noted: covalent, protonated Schiff base; retinal added to expression culture.

In test [2] the target is T2, halorhodopsin from Natronomonas pharaonis (NpHR) (Natronomonas pharaonis, UniProt P15647, W229F).
T2 construct: gene hop; C-terminal His tag, expressed in E. coli BL21(DE3), solubilised and purified in DDM; all-trans-retinal on Lys256
The test is described as above. To be noted: covalent, protonated Schiff base; retinal added to expression culture.

Test [3] has as its target T3, halorhodopsin from Natronomonas pharaonis (NpHR) (Natronomonas pharaonis, UniProt P15647).
T3 construct: gene hop; C-terminal His tag, expressed in E. coli BL21(DE3), solubilised and purified in DDM; all-trans-retinal on Lys256
The test is described as follows: visible resonance Raman spectroscopy (C=N stretch, deuteration shift). The conditions noted are these: covalent, protonated Schiff base at Lys256; pH 7.0; chloride-bound, formate-bound and anion-depleted forms.

T2 sequence (P15647 whole entry W229F): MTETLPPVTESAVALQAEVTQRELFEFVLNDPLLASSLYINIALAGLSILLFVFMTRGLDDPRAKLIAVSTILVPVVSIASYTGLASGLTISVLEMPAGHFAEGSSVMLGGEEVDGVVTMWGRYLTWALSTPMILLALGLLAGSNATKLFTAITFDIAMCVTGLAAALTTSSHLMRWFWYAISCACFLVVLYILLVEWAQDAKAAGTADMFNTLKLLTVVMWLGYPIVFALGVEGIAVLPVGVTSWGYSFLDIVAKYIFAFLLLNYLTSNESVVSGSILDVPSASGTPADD
T3 sequence (P15647 whole entry): as the sequence (P15647 whole entry W229F) above, with F229W counted along it
T1 sequence (P15647 whole entry W127F): as the sequence (P15647 whole entry W229F) above, with W127F, F229W counted along it

For `CC1=C(/C=C/C(C)=C/C=C/C(C)=C/C=O)C(C)(C)CCC1` [all-trans-retinal], the “absorption and time-resolved UV resonance Raman spectroscopy” value is “sufficient amounts of the W127F and W229F NpHR mutants were obtained to measure their spectra” in test [1]; “sufficient amounts of the W127F and W229F NpHR mutants were obtained to measure their spectra” in test [2]. Further, in test [3], the “visible resonance Raman spectroscopy (C=N stretch, deuteration shift)” value is listed as “The observed deuteration shifts indicate that the Schiff base is protonated in all three forms”.
